Source: BindingDB's records for doi:10.1111/cbdd.12746 (Ahi Evran University, 2016)

molecular target: Serum paraoxonase/arylesterase 1 (Homo sapiens, UniProt P27169); assay: Paraoxonase Activity Assay; details: pH 10.5
Protocol: Paraoxonase enzyme activity was determined at 25 °C with paraoxon (1 mM) in 50 mM glycine-NaOH (pH 10.5) containing 1 mM CaCl2. The enzyme assay was based on the estimation of p-nitrophenol at 412 nm. Assays were performed using a spectrophotometer (CHEBIOS UV-VIS, Fullerton, CA). The molar extinction coefficient of paranitrophenol (Ɛ = 18 290/M/cm at pH 10.5) is used for thecalculation of enzyme activity. One enzyme unit was defined as the amount of enzyme that catalyzes the hydrolysis of 1 µmol of paraoxon at 25 °C (J. Chromatogr. B. 2006, 836:15-21).

Serum paraoxonase/arylesterase 1, sequence (P27169 whole entry): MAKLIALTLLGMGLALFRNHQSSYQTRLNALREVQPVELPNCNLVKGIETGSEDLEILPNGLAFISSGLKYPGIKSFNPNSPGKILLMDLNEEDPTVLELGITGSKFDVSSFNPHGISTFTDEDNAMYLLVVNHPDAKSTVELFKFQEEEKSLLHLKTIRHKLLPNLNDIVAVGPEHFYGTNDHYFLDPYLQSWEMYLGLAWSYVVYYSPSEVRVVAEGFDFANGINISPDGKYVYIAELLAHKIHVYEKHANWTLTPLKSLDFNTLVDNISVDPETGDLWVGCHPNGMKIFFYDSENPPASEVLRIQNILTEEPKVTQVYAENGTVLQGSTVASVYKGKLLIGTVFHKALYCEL

Q: How did the IC50 turn out when `CC(=O)O[C@H]1C(=O)[C@@]2(C)[C@H]([C@H](OC(=O)c3ccccc3)[C@]3(O)C[C@H](OC(=O)[C@H](O)[C@@H](NC(=O)c4ccccc4)c4ccccc4)C(C)=C1C3(C)C)[C@]1(OC(C)=O)CO[C@@H]1C[C@@H]2O` was run?
A: The IC50 was 42 µM.

Q: And the Ki?
A: Its Ki is 16.5 µM.

Q: Which results are given for `COc1cc([C@@H]2c3cc4c(cc3[C@@H](O[C@@H]3O[C@@H]5CO[C@@H](C)O[C@H]5[C@H](O)[C@H]3O)[C@H]3COC(=O)[C@H]23)OCO4)cc(OC)c1O` [4'-Demethylepipodophyllotoxin 9-(4,6-O-(R)-ethylidene-beta-D-glucopyranoside)]?
A: IC50: 226 µM; Ki: 131 µM

Q: Which results are given for `CC(=O)O[C@@]12CO[C@@H]1C[C@H](O)[C@@]1(C)C(=O)[C@H](O)C3=C(C)[C@@H](OC(=O)[C@H](O)[C@@H](NC(=O)OC(C)(C)C)c4ccccc4)C[C@@](O)([C@@H](OC(=O)c4ccccc4)[C@H]21)C3(C)C` [CID148124]?
A: IC50: 665 µM; Ki: 291 µM

Q: What does the source list for `O=P1(NCCCl)OCCCN1CCCl` (stereo not drawn) [N,3-bis(2-chloroethyl)-2-oxo-1,3,2-oxazaphosphinan-2-amine]?
A: IC50: 23300 µM; Ki: 8970 µM
